Reference: patent US20230085307A1, “PYRIDAZINONE COMPOUND AND HERBICIDE” (NISSAN CHEMICAL CORPORATION, priority 2019, published 2023)

Legend:
Japanese bulrush = assay: Test Example 1: herbicidal activity, application before weed generation under submerged conditions (Table 16, symbol B); assay type: in vivo, Japanese bulrush (Schoenoplectus juncoides)
In short: (§1)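 Submerged Wagner pots (alluvial soil, 4 cm water) sown with weed seeds and planted with 2.5-leaf rice seedlings; emulsifiable concentrate diluted in water applied to water surface on sowing day. Held in greenhouse at 25-30 °C; injury scored 0-5 by herbicidal rate after three weeks.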

wild oat [1] = assay: Test Example 4: herbicidal effect by soil treatment (Table 19, symbol I); assay type: in vivo, wild oat (Avena fatua); details: amount of applied herbicide 320 g/ha
In short: (§2)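 Scoring uses the grading scale of an earlier test, three weeks post-application. Treatment consists of spraying a diluted emulsion formulation across the surface of sterilized diluvial soil in which seeds are buried near 1.5 cm deep; boxes are kept in a greenhouse between 25° C. and 30° C.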

wild oat [2] = assay: Test Example 5: herbicidal effect by foliage application, plastic box (Table 20, symbol I); assay type: in vivo, wild oat (Avena fatua); details: foliage application, evaluated three weeks after application
In short: (§3)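 Post-emergence foliar test in sterilized diluvial soil. Compound applied as water-diluted emulsion at a predetermined rate to 14-day-old plants; evaluation at three weeks.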

lambsquarters [3] = assay: Test Example 5: herbicidal effect by foliage application, plastic box (Table 20, symbol O); assay type: in vivo, lambsquarters (Chenopodium album); details: foliage application, evaluated three weeks after application
In short: as §3

green foxtail [4] = assay: Test Example 4: herbicidal effect by soil treatment (Table 19, symbol G); assay type: in vivo, green foxtail (Setaria viridis); details: amount of applied herbicide 320 g/ha
In short: as §2

green foxtail [5] = assay: Test Example 5: herbicidal effect by foliage application, plastic box (Table 20, symbol G); assay type: in vivo, green foxtail (Setaria viridis); details: foliage application, evaluated three weeks after application
In short: as §3

velvetleaf [6] = assay: Test Example 5: herbicidal effect by foliage application, plastic box (Table 20, symbol M); assay type: in vivo, velvetleaf (Abutilon theophrasti); details: foliage application, evaluated three weeks after application
In short: as §3

windgrass [7] = assay: Test Example 5: herbicidal effect by foliage application, plastic box (Table 20, symbol L); assay type: in vivo, windgrass (Apera spica-venti); details: foliage application, evaluated three weeks after application
In short: as §3

chickweed [8] = assay: Test Example 5: herbicidal effect by foliage application, plastic box (Table 20, symbol P); assay type: in vivo, common chickweed (Stellaria media); details: foliage application, evaluated three weeks after application
In short: as §3

velvetleaf [9] = assay: Test Example 4: herbicidal effect by soil treatment (Table 19, symbol M); assay type: in vivo, velvetleaf (Abutilon theophrasti); details: amount of applied herbicide 320 g/ha
In short: as §2

persian speedwell [10] = assay: Test Example 5: herbicidal effect by foliage application, plastic box (Table 20, symbol R); assay type: in vivo, Persian speedwell (Veronica persica); details: foliage application, evaluated three weeks after application
In short: as §3

redroot pigweed [11] = assay: Test Example 4: herbicidal effect by soil treatment (Table 19, symbol N); assay type: in vivo, redroot pigweed (Amaranthus retroflexus); details: amount of applied herbicide 320 g/ha
In short: as §2

barnyard grass [12] = assay: Test Example 4: herbicidal effect by soil treatment (Table 19, symbol H); assay type: in vivo, barnyard grass (Echinochloa crus-galli); details: amount of applied herbicide 320 g/ha
In short: as §2

chickweed [13] = assay: Test Example 4: herbicidal effect by soil treatment (Table 19, symbol P); assay type: in vivo, common chickweed (Stellaria media); details: amount of applied herbicide 320 g/ha
In short: as §2

oval-leafed pondweed = assay: Test Example 1: herbicidal activity, application before weed generation under submerged conditions (Table 16, symbol C); assay type: in vivo, oval-leafed pondweed (Monochoria vaginalis)
In short: as §1

southern crabgrass [14] = assay: Test Example 4: herbicidal effect by soil treatment (Table 19, symbol F); assay type: in vivo, southern crabgrass (Digitaria ciliaris); details: amount of applied herbicide 320 g/ha
In short: as §2

Italian ryegrass [15] = assay: Test Example 4: herbicidal effect by soil treatment (Table 19, symbol K); assay type: in vivo, Italian ryegrass (Lolium multiflorum); details: amount of applied herbicide 320 g/ha
In short: as §2

barnyard grass [16] = assay: Test Example 3: herbicidal effect by foliage application, Wagner pot (Table 18, symbol H); assay type: in vivo, barnyard grass (Echinochloa crus-galli); details: amount of applied herbicide 320 g/ha
In short: (§4)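 Plants were sown in alluvial soil held under 0.1–0.5 cm standing water and grown 14 days in a greenhouse at 25–30 °C. An emulsifiable formulation, water-diluted to the set dose, was then sprayed onto the foliage, and effects were scored three weeks later using previously defined criteria.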

windgrass [17] = assay: Test Example 4: herbicidal effect by soil treatment (Table 19, symbol L); assay type: in vivo, windgrass (Apera spica-venti); details: amount of applied herbicide 320 g/ha
In short: as §2

blackgrass [18] = assay: Test Example 5: herbicidal effect by foliage application, plastic box (Table 20, symbol J); assay type: in vivo, blackgrass (Alopecurus myosuroides); details: foliage application, evaluated three weeks after application
In short: as §3

rice flat sedge = assay: Test Example 3: herbicidal effect by foliage application, Wagner pot (Table 18, symbol E); assay type: in vivo, rice flat sedge (Cyperus iria); details: amount of applied herbicide 320 g/ha
In short: as §4

late watergrass = assay: Test Example 1: herbicidal activity, application before weed generation under submerged conditions (Table 16, symbol A); assay type: in vivo, late watergrass (Echinochloa oryzicola)
In short: as §1

southern crabgrass [19] = assay: Test Example 5: herbicidal effect by foliage application, plastic box (Table 20, symbol F); assay type: in vivo, southern crabgrass (Digitaria ciliaris); details: foliage application, evaluated three weeks after application
In short: as §3

Italian ryegrass [20] = assay: Test Example 5: herbicidal effect by foliage application, plastic box (Table 20, symbol K); assay type: in vivo, Italian ryegrass (Lolium multiflorum); details: foliage application, evaluated three weeks after application
In short: as §3

barnyard grass [21] = assay: Test Example 5: herbicidal effect by foliage application, plastic box (Table 20, symbol H); assay type: in vivo, barnyard grass (Echinochloa crus-galli); details: foliage application, evaluated three weeks after application
In short: as §3

redroot pigweed [22] = assay: Test Example 5: herbicidal effect by foliage application, plastic box (Table 20, symbol N); assay type: in vivo, redroot pigweed (Amaranthus retroflexus); details: foliage application, evaluated three weeks after application
In short: as §3

lambsquarters [23] = assay: Test Example 4: herbicidal effect by soil treatment (Table 19, symbol O); assay type: in vivo, lambsquarters (Chenopodium album); details: amount of applied herbicide 320 g/ha
In short: as §2

Chinese sprangletop = assay: Test Example 3: herbicidal effect by foliage application, Wagner pot (Table 18, symbol D); assay type: in vivo, chinese sprangletop (Leptochloa chinensis); details: amount of applied herbicide 320 g/ha
In short: as §4

blackgrass [24] = assay: Test Example 4: herbicidal effect by soil treatment (Table 19, symbol J); assay type: in vivo, blackgrass (Alopecurus myosuroides); details: amount of applied herbicide 320 g/ha
In short: as §2

persian speedwell [25] = assay: Test Example 4: herbicidal effect by soil treatment (Table 19, symbol R); assay type: in vivo, Persian speedwell (Veronica persica); details: amount of applied herbicide 320 g/ha
In short: as §2

[26] = amount of applied herbicide 320 g/ha

Cc1nn(C)c(=O)c(-c2c(-c3cccc(F)c3)sc3ccc(F)cc23)c1O [2-201]
Herbicidal effect on B: Japanese bulrush (grade 0-5) (Japanese bulrush; 320 g/ha applied herbicide): 2 (Herbicidal rate of 20% or more and less than 40%) | I: wild oat, herbicidal effect rating (wild oat [1]): 0 (Herbicidal rate of 5% or less (almost no effect)) | herbicidal effect on I: wild oat (criteria 0-5) (wild oat [2]; 320 g/ha): 0 (Herbicidal rate of 5% or less (almost no effect)) | herbicidal effect on O: lambsquarters (criteria 0-5) (lambsquarters [3]; 320 g/ha): 5 (Herbicidal rate of 90% or more (almost completely withered)) | G: green foxtail, herbicidal effect rating (green foxtail [4]): 3 (Herbicidal rate of 40% or more and less than 70%) | herbicidal effect on G: green foxtail (criteria 0-5) (green foxtail [5]; 320 g/ha): 4 (Herbicidal rate of 70% or more and less than 90%) | herbicidal effect on M: velvetleaf (criteria 0-5) (velvetleaf [6]; 320 g/ha): 5 (Herbicidal rate of 90% or more (almost completely withered)) | herbicidal effect on L: windgrass (criteria 0-5) (windgrass [7]; 320 g/ha): 4 (Herbicidal rate of 70% or more and less than 90%) | herbicidal effect on P: chickweed (criteria 0-5) (chickweed [8]; 320 g/ha): 5 (Herbicidal rate of 90% or more (almost completely withered)) | M: velvetleaf, herbicidal effect rating (velvetleaf [9]): 4 (Herbicidal rate of 70% or more and less than 90%) | herbicidal effect on R: persian speedwell (criteria 0-5) (persian speedwell [10]; 320 g/ha): 5 (Herbicidal rate of 90% or more (almost completely withered)) | N: redroot pigweed, herbicidal effect rating (redroot pigweed [11]): 5 (Herbicidal rate of 90% or more (almost completely withered)) | H: barnyard grass, herbicidal effect rating (barnyard grass [12]): 4 (Herbicidal rate of 70% or more and less than 90%) | P: chickweed, herbicidal effect rating (chickweed [13]): 3 (Herbicidal rate of 40% or more and less than 70%) | Herbicidal effect on C: oval-leafed pondweed (grade 0-5) (oval-leafed pondweed; 320 g/ha applied herbicide): 0 (Herbicidal rate of 5% or less (almost no effect)) | F: southern crabgrass, herbicidal effect rating (southern crabgrass [14]): 3 (Herbicidal rate of 40% or more and less than 70%) | K: Italian ryegrass, herbicidal effect rating (Italian ryegrass [15]): 2 (Herbicidal rate of 20% or more and less than 40%) | herbicidal effect on H: barnyard grass (barnyard grass [16]): 5 (Herbicidal rate of 90% or more (almost completely withered)) | L: windgrass, herbicidal effect rating (windgrass [17]): 0 (Herbicidal rate of 5% or less (almost no effect)) | herbicidal effect on J: blackgrass (criteria 0-5) (blackgrass [18]; 320 g/ha): 0 (Herbicidal rate of 5% or less (almost no effect)) | herbicidal effect on E: rice flat sedge (rice flat sedge): 5 (Herbicidal rate of 90% or more (almost completely withered)) | Herbicidal effect on A: late watergrass (grade 0-5) (late watergrass; 320 g/ha applied herbicide): 2 (Herbicidal rate of 20% or more and less than 40%) | herbicidal effect on F: southern crabgrass (criteria 0-5) (southern crabgrass [19]; 320 g/ha): 4 (Herbicidal rate of 70% or more and less than 90%) | herbicidal effect on K: Italian ryegrass (criteria 0-5) (Italian ryegrass [20]; 320 g/ha): 4 (Herbicidal rate of 70% or more and less than 90%) | herbicidal effect on H: barnyard grass (criteria 0-5) (barnyard grass [21]; 320 g/ha): 5 (Herbicidal rate of 90% or more (almost completely withered)) | herbicidal effect on N: redroot pigweed (criteria 0-5) (redroot pigweed [22]; 320 g/ha): 5 (Herbicidal rate of 90% or more (almost completely withered)) | O: lambsquarters, herbicidal effect rating (lambsquarters [23]): 4 (Herbicidal rate of 70% or more and less than 90%) | herbicidal effect on D: Chinese sprangletop (Chinese sprangletop): 4 (Herbicidal rate of 70% or more and less than 90%) | J: blackgrass, herbicidal effect rating (blackgrass [24]): 0 (Herbicidal rate of 5% or less (almost no effect)) | R: persian speedwell, herbicidal effect rating (persian speedwell [25]): 0 (Herbicidal rate of 5% or less (almost no effect))

COc1ccccc1-c1sc2ccc(C=O)cc2c1-c1c(O)c(C)nn(C)c1=O [2-395]
Herbicidal effect, B: Japanese bulrush (Japanese bulrush; [26]): 2 (Herbicidal rate of 20% or more and less than 40%) | herbicidal effect, I: wild oat (wild oat [1]): 0 (Herbicidal rate of 5% or less (almost no effect)) | I: wild oat, herbicidal effect (criteria 0-5) (wild oat [2]; AAH 320 g/ha): 0 (Herbicidal rate of 5% or less (almost no effect)) | O: lambsquarters, herbicidal effect (criteria 0-5) (lambsquarters [3]; AAH 320 g/ha): 5 (Herbicidal rate of 90% or more (almost completely withered)) | herbicidal effect, G: green foxtail (green foxtail [4]): 0 (Herbicidal rate of 5% or less (almost no effect)) | G: green foxtail, herbicidal effect (criteria 0-5) (green foxtail [5]; AAH 320 g/ha): 4 (Herbicidal rate of 70% or more and less than 90%) | M: velvetleaf, herbicidal effect (criteria 0-5) (velvetleaf [6]; AAH 320 g/ha): 5 (Herbicidal rate of 90% or more (almost completely withered)) | L: windgrass, herbicidal effect (criteria 0-5) (windgrass [7]; AAH 320 g/ha): 0 (Herbicidal rate of 5% or less (almost no effect)) | P: chickweed, herbicidal effect (criteria 0-5) (chickweed [8]; AAH 320 g/ha): 5 (Herbicidal rate of 90% or more (almost completely withered)) | herbicidal effect, M: velvetleaf (velvetleaf [9]): 0 (Herbicidal rate of 5% or less (almost no effect)) | R: persian speedwell, herbicidal effect (criteria 0-5) (persian speedwell [10]; AAH 320 g/ha): 4 (Herbicidal rate of 70% or more and less than 90%) | herbicidal effect, N: redroot pigweed (redroot pigweed [11]): 3 (Herbicidal rate of 40% or more and less than 70%) | herbicidal effect, H: barnyard grass (barnyard grass [12]): 0 (Herbicidal rate of 5% or less (almost no effect)) | herbicidal effect, P: chickweed (chickweed [13]): 0 (Herbicidal rate of 5% or less (almost no effect)) | Herbicidal effect, C: oval-leafed pondweed (oval-leafed pondweed; [26]): 0 (Herbicidal rate of 5% or less (almost no effect)) | herbicidal effect, F: southern crabgrass (southern crabgrass [14]): 0 (Herbicidal rate of 5% or less (almost no effect)) | herbicidal effect, K: Italian ryegrass (Italian ryegrass [15]): 0 (Herbicidal rate of 5% or less (almost no effect)) | herbicidal effect on H: barnyard grass (barnyard grass [16]): 3 (Herbicidal rate of 40% or more and less than 70%) | herbicidal effect, L: windgrass (windgrass [17]): 0 (Herbicidal rate of 5% or less (almost no effect)) | J: blackgrass, herbicidal effect (criteria 0-5) (blackgrass [18]; AAH 320 g/ha): 0 (Herbicidal rate of 5% or less (almost no effect)) | herbicidal effect on E: rice flat sedge (rice flat sedge): 3 (Herbicidal rate of 40% or more and less than 70%) | Herbicidal effect, A: late watergrass (late watergrass; [26]): 0 (Herbicidal rate of 5% or less (almost no effect)) | F: southern crabgrass, herbicidal effect (criteria 0-5) (southern crabgrass [19]; AAH 320 g/ha): 3 (Herbicidal rate of 40% or more and less than 70%) | K: Italian ryegrass, herbicidal effect (criteria 0-5) (Italian ryegrass [20]; AAH 320 g/ha): 0 (Herbicidal rate of 5% or less (almost no effect)) | H: barnyard grass, herbicidal effect (criteria 0-5) (barnyard grass [21]; AAH 320 g/ha): 3 (Herbicidal rate of 40% or more and less than 70%) | N: redroot pigweed, herbicidal effect (criteria 0-5) (redroot pigweed [22]; AAH 320 g/ha): 5 (Herbicidal rate of 90% or more (almost completely withered)) | herbicidal effect, O: lambsquarters (lambsquarters [23]): 3 (Herbicidal rate of 40% or more and less than 70%) | herbicidal effect on D: Chinese sprangletop (Chinese sprangletop): 3 (Herbicidal rate of 40% or more and less than 70%) | herbicidal effect, J: blackgrass (blackgrass [24]): 0 (Herbicidal rate of 5% or less (almost no effect)) | herbicidal effect, R: persian speedwell (persian speedwell [25]): 0 (Herbicidal rate of 5% or less (almost no effect))
